For 12 compounds, TGI results are on record in PubChem BioAssay (NCI).

Assay in all cases: NCI anticancer screen, dose series, 48 h
Experiment [1] relates to 786-0 renal.
In experiment [2] the test system is A498 renal.
Experiment [3] relates to A549 NSCLC.
In experiment [4] the test system is CCRF-CEM leukemia.
Experiment [5] has as its system COLO 205 colon.
The subject of experiment [6] is HCT-116 colon.
In experiment [7] the test system is HCT-15 colon.
Experiment [8] deals with HS 578T breast.
Experiment [9] has as its system MCF7 breast.
Experiment [10] relates to MOLT-4 leukemia.
Experiment [11] concerns NCI-H226 lung.
Experiment [12] deals with OVCAR-5 ovarian.
The test system of experiment [13] is UO-31 renal.

Structures are written as SMILES.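 Exposure lasted 48 hours, with cells grown in 96-well plates and compounds tested at five concentrations. TGI: concentration producing complete growth inhibition.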 A value given as a limit tells only on which side of the number the result lay.

For the compound `CC(C)C(NC(=O)C(Cc1ccccc1)NC(=O)[C@H]1CCC[C@H]1NC(=O)C(N)Cc1ccc(O)cc1)C(N)=O` (stereo partly specified), the TGI in [1], in experiment [2], in experiment [3], in experiment [4], in [5] and in experiment [6] was > 100 µM throughout. The TGI in experiment [7], in [8], in experiment [9], in experiment [10], in [11] and in [12] was > 100 µM throughout. Also, in experiment [13], the TGI was > 100 µM.
In the case of `NC(=O)c1cccc([C@@H]2O[C@H](CO)[C@@H](O)[C@H]2O)c1`, the TGI is 12.3 µM in experiment [1]; > 100 µM in experiment [2]; > 100 µM in experiment [3]; 15.4 µM in [4]; 48.7 µM in experiment [5]; 34.6 µM in experiment [6]. In addition, the TGI in experiment [7] is 11.7 µM; in experiment [8] it was 74.5 µM; in experiment [9] it was > 100 µM; in experiment [10], 8.45 µM; in experiment [11] it was 75.7 µM; in experiment [12], > 100 µM. The same compound showed a TGI in experiment [13] of 15.7 µM.
Take `CCOC(=O)c1c(N2CCCC2)[nH]c(=O)c(C(c2cccs2)c2c(O)c(C(=O)OCC)c(N3CCCC3)[nH]c2=O)c1O`: the TGI in [1], in experiment [2], in experiment [3], in experiment [4], in experiment [5] and in [6] was > 100 µM in each case. Moreover, the TGI in [7], in experiment [8], in [9], in experiment [10], in experiment [11] and in experiment [12] was > 100 µM throughout. In experiment [13], the TGI was > 100 µM.
Consider `COc1ccc(CCNC(=O)[C@H]2CCCC[C@@H]2CCO)cc1OC`, for which the TGI in experiment [1], in experiment [2], in experiment [3], in experiment [4], in experiment [5] and in experiment [6] was > 100 µM each time. The TGI in [7], in experiment [8], in experiment [9], in [10], in [11] and in [12] was > 100 µM in each case. In experiment [13], the TGI was > 100 µM.
For the compound `Cc1ncc([N+](=O)[O-])n1CCNC(=O)Cn1c([N+](=O)[O-])cnc1C`, the TGI in experiment [1], in [2], in [3], in experiment [4], in experiment [5] and in experiment [6] was > 100 µM in each case. For the same compound, the TGI in experiment [7], in experiment [8], in experiment [9], in experiment [10], in experiment [11] and in experiment [12] was > 100 µM throughout. Besides, the TGI in experiment [13] was > 100 µM.
`C=C(C)C12CC3CC/C(=N/O)C(C1)C3(N1CCOCC1)C/C2=N/O` (stereo unspecified): the TGI in experiment [1], in experiment [2], in [3], in experiment [4], in [5] and in experiment [6] was > 100 µM each time. Further, the TGI in experiment [7], in experiment [8], in [9], in experiment [10], in [11] and in [12] was > 100 µM in each case. In addition, the TGI in experiment [13] was > 100 µM.
Consider `O=C(/C=C(\O)c1ccccc1)c1cc(-c2ccccc2)n(-c2ccccc2)n1`, for which the TGI in experiment [1] was 67.8 µM; in experiment [2], > 100 µM; in [3] it was 24.9 µM; in experiment [4] it was 7.16 µM; in experiment [5], 37.4 µM; in experiment [6], > 100 µM. Also, the TGI in experiment [7] was > 100 µM; in [8], > 100 µM; in [9], > 100 µM; in experiment [10] it was 4.51 µM; in [11] it was 25.2 µM; in experiment [12], > 100 µM. The compound further yielded a TGI in experiment [13] of 39.9 µM.
Turning to `COc1ccc(C(=O)Nc2ccc3oc(-c4ccccc4)nc3c2)cc1`, the TGI in experiment [1], in [2], in [3], in [4], in experiment [5] and in [6] was > 100 µM throughout. Besides, the TGI in experiment [7], in experiment [8], in [9], in experiment [10], in [11] and in experiment [12] was > 100 µM each time. In experiment [13], this compound displayed a TGI of 0.838 µM.
With `COP(=O)(OC)/C(=C\c1cn(C(c2ccccc2)(c2ccccc2)c2ccccc2)cn1)NC(C)=O`, the TGI in [1], in [2], in experiment [3], in experiment [4], in experiment [5] and in experiment [6] was > 100 µM in each case. The TGI in experiment [7], in [8], in experiment [9], in experiment [10], in experiment [11] and in [12] was > 100 µM in each case. The TGI in [13] is > 100 µM.
Regarding `CC#CC(O)(C(=O)OC1CC2CCC(C1)N2C)C1CCCC1` (stereo unspecified), the TGI in experiment [1], in [2], in [3], in [4], in [5] and in experiment [6] was > 100 µM throughout. The TGI in [7], in experiment [8], in experiment [9], in experiment [10], in experiment [11] and in experiment [12] was > 100 µM throughout. Besides, the TGI in [13] is > 100 µM.
As to `CC1OC(OC2C(Oc3cc(O)c4c(c3)O[C@H](c3ccc(O)cc3)CC4=O)OC(CO)C(O)C2O)C(O)C(O)C1O` (stereo partly specified), the TGI in experiment [1], in experiment [2], in experiment [3], in [4], in [5] and in [6] was > 100 µM in each case. Moreover, the TGI in [7], in experiment [8], in [9], in [10], in experiment [11] and in [12] was > 100 µM throughout. Moreover, the TGI in [13] was > 100 µM.
`O=C(NNC(=O)c1ccccc1O)c1ccc(O)cc1`: the TGI in experiment [1], in experiment [2], in [3], in experiment [4], in experiment [5] and in experiment [6] was > 100 µM throughout. Besides, the TGI in [7], in [8], in experiment [9], in experiment [10], in experiment [11] and in [12] was > 100 µM in each case. Further, the TGI in experiment [13] is > 100 µM.
